Publication PMC8036666, “Biological and Physico-Chemical Characteristics of Arginine-Rich Peptide Gemini Surfactants with Lysine and Cystine Spacers” (International Journal of Molecular Sciences, 2021)
In brackets after ≈: the same amount, converted by molar mass. Several values for one entry are separate records, joined by “and”; a condition that tells them apart may be missing. Equal values may be shown once. Read-outs that look alike come from different tables or passages of the source. Where a SMILES comes first, the peptide text is derived from it. Bridges are numbered along the chain shown (N, C = ends). Roman numbers before positions name the chains, in order. Side-chain parts run from the residue outwards. The star is where a group is joined. Myristoyl = CCCCCCCCCCCCCC(=O)*; Lauroyl = CCCCCCCCCCCC(=O)*; Decanoyl = CCCCCCCCCC(=O)*; Octanoyl = CCCCCCCC(=O)*

Tests used:
[1] = tested on: human red blood cells (hRBCs); experiment: Hemolysis assay; assay type: cell-based; conditions: red cells of human, 1 h
Method: The hemolysis assay was performed by using the method reported previously. Fresh human red blood cells (hRBCs) with anticoagulant (EDTA) were rinsed three times with a PBS by centrifugation at 800× g for 10 min and diluted with PBS. The compounds were serially diluted on a 96-well microtiter polystyrene plate, and hRBCs were added up to a final volume of 100 μL. The compound concentration ranged between 0.5 and 256 μg/mL and the final hRBCs concentration was 4% (v/v). Controls for zero (blank) and 100% hemolysis consisted of hRBCs suspended in PBS and 1% of Triton-X 100 (Carl Roth GmbH, Karlsruhe, Germany), respectively. The plate was incubated for 1 h at 37 °C and then centrifuged (800× g, 10 min, 4 °C). Subsequently, the supernatant was […] to new microtiter plates, and the absorbance at 540 nm was measured (Multiskan GO Microplate Spectrophotometer, Thermo Fisher Scientific, Vantaa, Finland). All experiments were conducted in triplicate. HC50 was calculated using an ic50.tk tool. The protocol of the study was approved by the local Bioethics Committee at the Medical University of Gdańsk (NKBBN/262/2019, approval date: 10 June 2019).

HaCaT cells = assay type: cell-based, human; conditions: 24 h
Method: Cells were trypsinized, and the medium was renewed 2–3 times per week. The cytotoxicity of compounds was assessed by the determination of cell metabolic activity by colorimetric CellTilter 96® Aqueous One Solution Cell Proliferation Assay (Promega, Madison, WI, USA), according to the manufacturer’s instructions. […] Every compound was medium-soluble in 37 °C; thus, the control cells were cultured with the medium. Serial dilutions of the tested compounds were always prepared prior to use. Cells were incubated with drugs for 24 h, and then, 20 μL of the CellTiter 96®AqueousOne Solution Reagent was added to each well containing cells maintained in 100 μL of culture medium.

[2] = tested on: Enterococcus faecium ATCC 700221
Method: (§1) The Acinetobacter baumannii ATCC BAA-1605, Enterococcus faecium ATCC 700221, Escherichia coli ML-35 ATCC 43827, Klebsiella aerogenes ATCC 13048, Klebsiella pneumoniae ATCC 700603, Pseudomonas aeruginosa ATCC 9027, Staphylococcus aureus ATCC 25923, Staphylococcus aureus ATCC 33591, Candida albicans ATCC 10231, Candida glabrata ATCC 15126, strains were acquired from the American Type Culture Collection (ATCC). All the strains were stored at −80 °C in Roti-Store cryo vials and before the tests were transferred into fresh Mueller–Hinton broth (MHB, Biocorp, Warsaw, Poland) for bacteria or RPMI-1640 (Sigma-Aldrich, Steinheim, Germany) for fungi and incubated for 24 h at 37 °C. Then, the cultures were seeded on the Mueller–Hinton agar (BioMaxima, Lublin, Poland) or Sabouraud dextrose agar (SDA, BioMaxima, Lublin, Poland) plates, respectively, and incubated as just mentioned. These agar cultures were used for further microbiological assays. Cell densities for all assays were adjusted spectrophotometrically (Multiskan GO Microplate Spectrophotometer, Thermo Fisher Scientific, Vantaa, Finland) at 600 and 530 nm for bacteria and fungi, respectively.
(§2) The MICs were determined by the broth microdilution method according to the Clinical and Laboratory Standard Institute guidelines. […] The experiments were conducted on 96-well microtiter polystyrene plates (Kartell, Noviglio, Italy). The growth was assessed visually after incubation, and the MIC was assumed as the lowest peptide concentration at which a noticeable growth of microorganisms was inhibited. All experiments were conducted in triplicate.

[3] = tested on: Staphylococcus aureus ATCC 25923
Method: as §1, §2

[4] = tested on: Pseudomonas aeruginosa ATCC 9027
Method: as §1, §2

[5] = tested on: Klebsiella pneumoniae ATCC 700603; conditions: ATCC 700603, 24 h
Method: as §1, §2

[6] = tested on: Klebsiella aerogenes ATCC 13048; conditions: ATCC 13048, 24 h
Method: as §1, §2

[7] = tested on: Acinetobacter baumannii ATCC BAA 1605; conditions: ATCC BAA 1605, 24 h
Method: as §1, §2

C. albicans ATCC 10231 = tested on: C. albicans ATCC 10231
Method: as §1
(§3) The MICs were determined by the broth microdilution method according to the Clinical and Laboratory Standard Institute guidelines. For this purpose, initial inoculums of bacteria (5 × 10^5 CFU/mL) in MHB and yeasts (2 × 10^3 CFU/mL) in RPMI-1640 with 2% D-glucose were exposed to the ranging concentration of lipopeptides (0.5–256 μg/mL) and incubated at 37 °C for 18 h and 24 h, respectively. The experiments were conducted on 96-well microtiter polystyrene plates (Kartell, Noviglio, Italy). The growth was assessed visually after incubation, and the MIC was assumed as the lowest peptide concentration at which a noticeable growth of microorganisms was inhibited. All experiments were conducted in triplicate.

C. glabrata ATCC 15126 = tested on: C. glabrata ATCC 15126
Method: as §1, §3

[8] = Critical aggregation concentration by surface tension (Du Noüy ring, K100 tensiometer); assay type: physicochemical; conditions: unbuffered aqueous solution, 298 K
Method: The identity of the purified peptides was confirmed with electrospray ionization mass spectrometry (ESI-MS) in positive ion mode. Results of MS analyses and net charge are attached in Supplementary Materials (Table S1). Peptides’ hydrophobicity was evaluated by analytical reversed-phase high-performance liquid chromatography (RP-HPLC). The critical aggregation concentrations (CACs) of the lipopeptides were determined in unbuffered aqueous solution at 298 K by measuring the surface tension as a function of lipopeptide concentration. The measurements were carried out by the Du Noüy ring method on a K100 tensiometer. The surface tension data were plotted against the logarithm of lipopeptide concentration. CAC was found as the intersection of two lines being linear regression of data below and above CAC.
The critical aggregation concentration (CAC) values were determined fully automatically using a K100 tensiometer (KRUSS, Hamburg, Germany) equipped with two micro dosimeters by measuring the surface tension vs. lipopeptide concentration. The measurements were performed in unbuffered aqueous solution at 298 K using the Du Noüy ring method. The accuracy of the surface tension measurements was 0.1 mN/m. The critical aggregation concentration (CAC) was defined as the intersection of two lines fitted to the experimental data collected before and after the inflection point.

| SMILES | HC50 [1] [µg/mL] | IC50 (HaCaT cells) [µg/mL] | MIC Enterococcus faecium ATCC 700221 ([2]; ATCC 700221, 24 h) [µg/mL] | MIC Staphylococcus aureus ATCC 25923 ([3]; ATCC 25923, 24 h) [µg/mL] | MIC Pseudomonas aeruginosa ATCC 9027 ([4]; ATCC 9027, 24 h) [µg/mL] | MIC Klebsiella pneumoniae ATCC 700603 [5] | MIC Klebsiella aerogenes ATCC 13048 [6] | MIC Acinetobacter baumannii ATCC BAA 1605 [7] | MIC C. albicans ATCC 10231 (C. albicans ATCC 10231; ATCC 10231, 24 h) [µg/mL] | MIC C. glabrata ATCC 15126 (C. glabrata ATCC 15126; ATCC 15126, 24 h) [µg/mL] | MIC Enterococcus faecium ATCC 700221 ([2]; planktonic culture) | MIC Staphylococcus aureus ATCC 25923 ([3]; planktonic culture) | MIC Pseudomonas aeruginosa ATCC 9027 ([4]; planktonic culture) | MIC C. albicans ATCC 10231 (C. albicans ATCC 10231; planktonic culture) | MIC C. glabrata ATCC 15126 (C. glabrata ATCC 15126; planktonic culture) | CAC [8] | Surface Tension at CAC [8] [mN/m] |
| --- | --- | --- | --- | --- | --- | --- | --- | --- | --- | --- | --- | --- | --- | --- | --- | --- | --- |
| CCCCCCC(CCCC)C(=O)N[C@@H](CCCNC(=N)N)C(=O)N[C@@H](CCCNC(=N)N)C(=O)NCCCC[C@H](NC(=O)[C@H](CCCNC(=N)N)NC(=O)[C@H](CCCNC(=N)N)NC(=O)C(CCCC)CCCCCC)C(N)=O (stereo partly shown) [Compound B7] | >256 | 78.78 ± 6.93 (≈ 69.4 µM) | 1 (≈ 0.881 µM) | 1 (≈ 0.881 µM) | 4 (≈ 3.53 µM) | 32 µg/mL (≈ 28.2 µM) | 16 µg/mL (≈ 14.1 µM) | 32 µg/mL (≈ 28.2 µM) | 8 (≈ 7.05 µM) | 16 (≈ 14.1 µM) |  |  |  |  |  |  |  |
| CCCCCCCC(=O)N[C@@H](CCCNC(=N)N)C(=O)N[C@@H](CCCNC(=N)N)C(N)=O [Compound A1, C8-RR-NH2] (Octanoyl-Arg-Arg-NH2) |  | >500 |  |  |  | >256 (−/−) µg/mL | >256 (−/−) µg/mL | >256 (−/−) µg/mL |  |  | >256 (−/−) µg/mL | >256 (−/−) µg/mL | >256 (−/−) µg/mL | >256 (−/−) µg/mL | >256 (−/−) µg/mL |  |  |
| CCCCCCCCCCCCCC(=O)N[C@@H](CCCNC(=N)N)C(=O)N[C@@H](CCCNC(=N)N)C(N)=O [Compound A4, C14-RR-NH2] (Myristoyl-Arg-Arg-NH2) |  | 46.48 ± 3.65 (≈ 86.1 µM) | 8 (≈ 14.8 µM) | 8 (≈ 14.8 µM) | 32 (≈ 59.3 µM) | 256 (−/−) µg/mL | 256 (−/−) µg/mL | 64 µg/mL (≈ 119 µM) | 8 (≈ 14.8 µM) | 16 (≈ 29.6 µM) |  |  |  |  |  | 1.67 mM and 899.7 μg/mL | 35 |
| CCCCCCCCCCCC(=O)N[C@@H](CCCNC(=N)N)C(=O)N[C@@H](CCCNC(=N)N)C(N)=O [Compound A3, C12-RR-NH2] (Lauroyl-Arg-Arg-NH2) |  | 153.50 ± 8.13 (≈ 300 µM) | 32 (≈ 62.5 µM) | 32 (≈ 62.5 µM) | 128 (≈ 250 µM) | >256 (−/−) µg/mL | >256 (−/−) µg/mL | 256 (−/−) µg/mL | 64 (≈ 125 µM) | 128 (≈ 250 µM) |  |  |  |  |  | 7.48 mM and 3827.3 μg/mL | 38 |
| CCCCCCCC(=O)N[C@@H](CCCNC(=N)N)C(=O)N[C@@H](CCCNC(=N)N)C(=O)N[C@@H](CSSC[C@H](NC(=O)[C@H](CCCNC(=N)N)NC(=O)[C@H](CCCNC(=N)N)NC(=O)CCCCCCC)C(N)=O)C(N)=O [Compound C1] (I: Octanoyl-Arg-Arg-Cys-NH2 / II: Octanoyl-Arg-Arg-Cys-NH2; disulfide I:3-II:3) | >256 | >500 | 32 (≈ 28.7 µM) | 8 (≈ 7.17 µM) | 64 (≈ 57.4 µM) | >256 (−/−) µg/mL | >256 (−/−) µg/mL | 256 (−/−) µg/mL | 128 (≈ 115 µM) | 64 (≈ 57.4 µM) |  |  |  |  |  |  |  |
| CCCCCCCCCC(=O)N[C@@H](CCCNC(=N)N)C(=O)N[C@@H](CCCNC(=N)N)C(N)=O [Compound A2, C10-RR-NH2] (Decanoyl-Arg-Arg-NH2) |  | >500 |  |  |  | >256 (−/−) µg/mL | >256 (−/−) µg/mL | >256 (−/−) µg/mL |  |  | 256 (−/−) µg/mL | 256 (−/−) µg/mL | >256 (−/−) µg/mL | >256 (−/−) µg/mL | >256 (−/−) µg/mL |  |  |
| CCCCCCCC(=O)N[C@@H](CCCNC(=N)N)C(=O)N[C@@H](CCCNC(=N)N)C(=O)NCCCC[C@H](NC(=O)[C@H](CCCNC(=N)N)NC(=O)[C@H](CCCNC(=N)N)NC(=O)CCCCCCC)C(N)=O [Compound B1] (Octanoyl-Arg-Arg-Lys([Arg-Arg-Octanoyl])-NH2) | >256 | 378.40 ± 93.71 (≈ 370 µM) | 64 (≈ 62.6 µM) | 4 (≈ 3.91 µM) | 32 (≈ 31.3 µM) | >256 (−/−) µg/mL | >256 (−/−) µg/mL | 256 (−/−) µg/mL | 64 (≈ 62.6 µM) | 64 (≈ 62.6 µM) |  |  |  |  |  |  |  |
